Results from PubChem BioAssay (NCI).
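Test compounds were applied to cells in 96-well plates for 48 hours at 5 doses. At the GI50, growth is halved. The concentration for full growth arrest is given as TGI.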

Legend:
Assay in all cases: NCI anticancer screen, dose series, 48 h
[1] = test system: BT-549 breast
[2] = test system: CCRF-CEM leukemia
[3] = test system: HCC-2998 colon
[4] = test system: KM12 colon
[5] = test system: MDA-MB-231 breast
[6] = test system: MDA-MB-435
[7] = test system: OVCAR-4 ovarian
[8] = test system: RPMI-8226 leukemia
[9] = test system: SF-295 CNS
[10] = test system: SK-MEL-2 melanoma
[11] = test system: SK-MEL-28 melanoma
[12] = test system: SK-MEL-5 melanoma
[13] = test system: SN12C renal
[14] = test system: TK-10 renal
[15] = test system: UACC-257 melanoma
[16] = test system: UACC-62 melanoma
[17] = test system: HL-60(TB) leukemia
[18] = test system: SNB-75 CNS
[19] = test system: SR leukemia

SMILES	TGI [1] [µM]	TGI [2] [µM]	TGI [3] [µM]	TGI [4] [µM]	TGI [5] [µM]	TGI [6] [µM]	TGI [7] [µM]	TGI [8] [µM]	TGI [9] [µM]	TGI [10] [µM]	TGI [11] [µM]	TGI [12] [µM]	TGI [13] [µM]	TGI [14] [µM]	TGI [15] [µM]	TGI [16] [µM]	TGI [17] [µM]	TGI [18] [µM]	TGI [19] [µM]	GI50 [17] [µM]
CC12CCC(CC1=O)C2(C)CCC(N)=O (centres undefined)	> 100	> 100	> 100	> 100	> 100	> 100	> 100	> 100	> 100	> 100	> 100	> 100	> 100	> 100	> 100	> 100				
CC1=C(C(=O)O)N2C(=O)[C@@H](NC(=O)C(c3ccc(O)cc3)N3CSC(=S)N(C(C)C)C3)C2SC1 (some centres undefined)		> 100		> 100			> 100	> 100	> 100	> 100	> 100	> 100	> 100	> 100	> 100	> 100	> 100	> 100		
ONc1ncnc2nc[nH]c12		> 100	> 100	> 100			> 100	> 100	> 100	> 100	> 100	> 100		> 100	> 100	> 100	> 100	> 100	> 100	
COC(O)C(=O)c1c2c(cc3c1CC1(Cc4cc5c(cc4C1)CCC5)C3)CCC2 (centres undefined)		20.5	42.8		29.2	6.58	33.9	30	41.8	32.1	35.7	31.3		32.1	33.1		44.3	31.6	15.1	
O=C1c2c(ccc3c2CCCC3)CC12Cc1ccc3c(c1C2=O)CCCC3		> 100	> 100		> 100	> 100	> 100	> 100	> 100	> 100	> 100	> 100		> 100	> 100		> 100	> 100	> 100	
CCOC(CN=C=S)OCC		> 10	> 10	> 10	> 10	> 10	> 10	> 10	> 10	> 10	> 10	> 10	> 10	> 10	> 10	> 10	> 10	> 10	> 10	
Cc1c(/C=N/NC(=O)c2cc(Br)cc(Br)c2O)c(=O)n(-c2ccccc2)n1C		> 100	> 100	> 100			> 100	> 100	> 100	> 100	49.8	> 100	> 100	> 100	> 100	41.7	5.97	> 100		
O=Nc1c(O)cc(Nc2ccc(Br)cc2)c2ccccc12		> 100	19.4	23.1	48.3	3.37	> 100	> 86.9	2.98	3.64	4.2	3.15	> 63.6	27.7	3.33		55.9		72.4	
CCOP(=O)(OCC)C1CC(O)C(=O)N1 (centres undefined)		> 100		> 100	> 100	> 100	> 100	> 100	> 100	> 100	> 100	> 100	> 100	> 100	> 100	> 100		> 100	> 100	
CCC1C(C#N)=C(N)OC2=C1C(=O)CC(C)(C)C2 (centres undefined)	> 100	> 100	> 100	> 100	> 100	> 100	> 100	> 100	> 100	> 100	> 100	> 100	> 100	> 100	> 100	> 100	> 100			
CC(NNC(=O)c1ccncc1)c1ccc(F)cc1 (centres undefined)	> 100	> 100	> 100	> 100	> 100	> 100	> 100		> 100	> 100	> 100	> 100	> 100	> 100	> 100	> 100	> 100	> 100		
CC(=O)OCOC(=O)CN(CC(=O)OCOC(C)=O)Cc1cc2c(cc1OC(C)=O)Oc1cc(OC(C)=O)c(CN(CC(=O)OCOC(C)=O)CC(=O)OCOC(C)=O)cc1C21OC(=O)c2ccccc21	1.16	0.374			3.64	2.02	3.42		11.1	2.33	1.76	2.12	2.83	3	1.27	1.19	0.0289	9.39		
O=C1C(Cl)=C(OCCCCl)C(=O)c2c(O)ccc(O)c21	3.86	0.168	30.2	29.1	6		7.14	5.58	18.3		4.48	3.33	5.1	9.48	5.98	3.9		3.91	1.2	
CCOC(=O)c1c(N2CCCC2)nsc1Nc1ccc(F)cc1		73.7	> 100	> 100	> 100	> 100	> 100	> 100	> 100	46.4	> 100	34.3	> 100	> 100	> 100	> 100	58.8		> 100	
COc1cc(Cn2c3ccccc3c3cc(C)c4c(c32)C=CC(C)(CCC=C(C)C)O4)cc2c1[nH]c1ccccc12 (centres undefined)		> 100	> 100	> 100			> 100	> 100	> 100	> 100	> 100	> 100	> 100	> 100	> 100	> 100	> 100	> 100	> 100	
O=[N+]([O-])c1ccc(-c2nnc(C34CC5CC(CC(C5)C3)C4)o2)cc1		> 100	> 100	> 100	> 100	> 100	> 100	> 100	> 100	> 100	> 100	> 100	> 100	> 100		> 100	> 100	> 100	> 100	
CCOC(=O)c1ccc(N=C2C(=S)N(c3ccc(C(=O)OCC)cc3)C(=N)N2/N=C/c2ccccc2)cc1	80.2		58	31.2	32.6			> 100	70.4	> 100		35.6	41.3	62.2		38.3			> 100	
c1ccc([P+](Cc2ccc(C[P+](c3ccccc3)(c3ccccc3)c3ccccc3)cc2)(c2ccccc2)c2ccccc2)cc1		> 100	> 100	> 100	> 100	> 100	> 100	> 100	> 100		> 100	90.1	> 100	> 100	> 100	> 100	> 100	> 100	> 100	
CC(C)(Br)C(Br)CCC(C)(Br)C(Br)CO (centres undefined)	> 10	> 10	> 10		> 10	> 10	> 10	> 10	> 10		> 10	> 10	> 10		> 10			> 10		
N#CCc1nc2ccccc2c(=O)[nH]1			> 100	> 100	> 100	> 100	> 100		> 100	> 100	> 100	> 100	> 100	> 100	> 100		> 100	> 100		
CCN(CC)CCCNc1nc(=O)[nH]c(C)c1C(=O)Nc1cccc2cc3ccccc3cc12		> 100	> 100	> 100	> 100	> 100	> 100	> 100	> 100	> 100	> 100	> 100	> 100	> 100	> 100	> 100	> 100	> 100		
O=C(/C=C/c1ccccc1)/C=N/N1C(=S)N(c2ccccc2)C(=Nc2ccccc2)C1=Nc1ccccc1	> 100		> 100	> 100	> 100			> 100	> 100	> 100	> 100	> 100	> 100	> 100	> 100	> 100			> 100	
N=c1c2c(C(N)=O)cn(C3OC(CO)C(O)C3O)c2ncn1O (centres undefined)	4.61	1.46		0.753		0.74	6.81		1.42	2.33	2.3	0.174	0.444	0.426	0.901	0.283	0.659	4.85	0.234	0.191
COc1cccc(N=Cc2cc3cc(Br)ccc3nc2Cl)c1	> 50	48.8	> 50	> 50		> 50	2.63	41.6	> 50	> 50	> 50	> 50	> 50		> 50		> 50	> 50	20.8	
Cc1nc2cccc(F)c2c(=O)n1C1CCCCNC1=O (centres undefined)		> 10	> 10	> 10	> 10	> 10	> 10	> 10	> 10	> 10	> 10	> 10	> 10	> 10	> 10	> 10	> 10	> 10	> 10	
CN(C)CCCNC(=O)CCNC(=O)c1cc(NC(=O)c2cc(NC(=O)c3cc(NC(=O)c4nc(NC(=O)CCCNC(=O)c5cc(NC(=O)c6cc(NC(=O)c7cc(NC(=O)c8nccn8C)cn7C)cn6C)cn5C)cn4C)cn3C)cn2C)cn1C		> 100	> 100	> 100	> 100	> 100	> 100	> 100	> 100	> 100	> 100	> 100	> 100	> 100	> 100		> 100	> 100	> 100	
O=[N+]([O-])C(C(Cl)=C(Cl)Cl)=C(N(Cc1ccccc1)Cc1ccccc1)N(Cc1ccccc1)Cc1ccccc1	> 100	60.6	55.4	> 100	> 100	79.8			> 100	98.3	> 100	> 100	> 100	> 100	> 100	> 100	78	> 100		
O=C(CCCN1CCC2(CC1)OC(=O)N(c1ccccc1)C2=O)c1ccccc1		> 100	> 100	> 100	93.4	> 100	> 100	> 100	> 100	> 100	> 100	> 100	> 100	> 100	> 100	> 100	> 100	> 100	> 100	
